Here are results for seven compounds from ChEMBL document CHEMBL1671621, “Efficient clearance of Aspergillus fumigatus in murine lungs by an ultrashort antimicrobial lipopeptide, palmitoyl-lys-ala-DAla-lys” (Antimicrob Agents Chemother, 2008).

One may read the MIC as the lowest concentration found to suppress growth.

Data set [1] has as its system Aspergillus fumigatus. The data set can be described thus: Antifungal activity against Aspergillus fumigatus CBS 144.89 by CLSI […] method. It counts as functional.
The nature of data set [2]: Toxicity in human RBC assessed as hemolysis at 20 uM. As to conditions: red blood cells (RBC), read-out: Activity. In kind it is cell-based, Erythrocyte.
The nature of data set [3]: Toxicity in human RBC assessed as hemolysis at 50 uM. It counts as cell-based, Erythrocyte. Particulars: red blood cells (RBC), read-out: Activity.
Data set [4] relates to Aspergillus fumigatus. The experiment in a line: Antifungal activity against DsRed-labeled Aspergillus fumigatus CBS 144.89 infected in immunocompromized C57BL/6 mouse assessed fungal hyphae degradation in lung at 4.5 mg/kg qd administered intratracheally for 4 days relative to untreated control. In kind it is functional, organism-based. Details: dose 4.5 mg/kg.
The test system of data set [5] is Aspergillus fumigatus. The experiment in a line: Antifungal activity against DsRed-labeled Aspergillus fumigatus CBS 144.89 infected in transgenic C57BL/6 Cx3cr1 gfp/+ mouse assessed as macrophages phygocytosed-fungal conidia at 4.5 mg/kg qd administered intratracheally for 4 days relative to untreated control. It counts as functional, organism-based. More on the design: dose 4.5 mg/kg.

In data set [6] the test system is Aspergillus fumigatus. The data set can be described thus: Antifungal activity against Aspergillus fumigatus CBS 144.89 infected in immunosuppressed wild-type C57BL/6 mouse assessed as increase in survival rate at 4.5 mg/kg administered intratracheally as single dose one day postinfection measured after 14 days relative to untreated control. It counts as functional, organism-based. More on the design: dose 4.5 mg/kg.

The test system of data set [7] is Aspergillus fumigatus. The experiment in a line: Antifungal activity against Aspergillus fumigatus CBS 144.89 infected in immunosuppressed wild-type C57BL/6 mouse assessed as increase in survival rate at 4.5 mg/kg administered intratracheally for 4 days from the day of infection measured after 14 days relative to untreated control. Details: dose 4.5 mg/kg. In kind it is functional, organism-based.

Data set [8] deals with Aspergillus fumigatus. The experiment in a line: Antifungal activity against Aspergillus fumigatus CBS 144.89 infected in immunosuppressed wild-type C57BL/6 mouse assessed as clearance of fungal forms in lung at 4.5 mg/kg administered intratracheally on days 1, 4, 7 and 11 one day post infection measured after 21 days relative to untreated control. It counts as functional, organism-based. Details: dose 4.5 mg/kg.

The subject of data set [9] is Mus musculus. The experiment in a line: Toxicity in immunosuppressed C57BL/6 mouse assessed as mild multifocal interstitial plasmacytic infiltration at 4.5 mg/kg administered intratracheally on days 1, 4, 7 and 11 one day post infection. It counts as organism-based. Details: dose 4.5 mg/kg, route endotracheal. Particulars: in vivo, inhaled_or_intranasal.
The subject of data set [10] is Mus musculus. The experiment in a line: Toxicity in immunosuppressed C57BL/6 mouse assessed as mild multifocal interstitial plasmacytic infiltration at 1 mg/kg administered intratracheally on days 1, 4, 7 and 11 one day post infection. It counts as organism-based. Details: dose 1 mg/kg, route endotracheal. Particulars: in vivo, inhaled_or_intranasal.
The subject of data set [11] is Aspergillus fumigatus. The experiment in a line: Antifungal activity against Aspergillus fumigatus CBS 144.89 infected in immunosuppressed wild-type C57BL/6 mouse assessed as recovery from infection at 4.5 mg/kg administered intratracheally on days 1, 4, 7 and 11 one day post infection measured after 21 days relative to untreated control. In kind it is functional. Particulars: route endotracheal.

Data set [12] has as its system Aspergillus fumigatus. The experiment in a line: Antifungal activity against Aspergillus fumigatus CBS 144.89 infected in immunosuppressed wild-type C57BL/6 mouse assessed as increase in survival rate at 4.5 mg/kg administered intratracheally on days 1, 4, 7 and 11 one day post infection measured after 21 days relative to untreated control. It counts as functional, organism-based. More on the design: dose 4.5 mg/kg.

Data set [13] relates to Aspergillus fumigatus. The data set can be described thus: Antifungal activity against DsRed-labeled Aspergillus fumigatus CBS 144.89 infected in transgenic C57BL/6 Cx3cr1 gfp/+mouse assessed as decrease in residual fungal spore colocalized with macrophage and dendritic cell at 4.5 mg/kg qd administered intratracheally for 4 days relative to untreated control. In kind it is functional, organism-based. Details: dose 4.5 mg/kg.

Data set [14] deals with Aspergillus fumigatus. The data set can be described thus: Antifungal activity against DsRed-labeled Aspergillus fumigatus CBS 144.89 infected in immunocompromized mouse assessed as macrophages phygocytosed-fungal conidia at 4.5 mg/kg qd administered intratracheally for 4 days relative to untreated control. Details: dose 4.5 mg/kg. It counts as functional, organism-based.

Data set [15] deals with Aspergillus fumigatus. The experiment in a line: Antifungal activity against DsRed-labeled Aspergillus fumigatus CBS 144.89 infected in immunocompromized mouse assessed as decrease in residual fungal spore colocalized with macrophage and dendritic cell at 4.5 mg/kg qd administered intratracheally for 4 days relative to untreated control. More on the design: dose 4.5 mg/kg. In kind it is functional, organism-based.

Data set [16] concerns Aspergillus fumigatus. The data set can be described thus: Antifungal activity against DsRed-labeled Aspergillus fumigatus CBS 144.89 infected in immunocompromized C57BL/6 mouse assessed fungal hyphae degradation in lung at 1 mg/kg qd administered intratracheally for 4 days relative to untreated control. In kind it is functional, organism-based. More on the design: dose 1 mg/kg.

Data set [17] deals with Mus musculus. The experiment in a line: Toxicity in immunosuppressed C57BL/6 mouse assessed as macrophage infiltration in the airways at 1 to 4.5 mg/kg administered intratracheally on days 1, 4, 7 and 11 one day post infection. It counts as organism-based. Details: dose 1-4.5 mg/kg, route endotracheal. Particulars: in vivo, inhaled_or_intranasal.
Data set [18] relates to Mus musculus. The data set can be described thus: Toxicity in immunosuppressed C57BL/6 mouse assessed as vasculitis at 1 to 4.5 mg/kg administered intratracheally on days 1, 4, 7 and 11 one day post infection. Details: dose 1-4.5 mg/kg, route endotracheal. In kind it is organism-based. Particulars: in vivo, inhaled_or_intranasal.
Data set [19] concerns Mus musculus. The experiment in a line: Toxicity in immunosuppressed C57BL/6 mouse assessed as edema at 1 to 4.5 mg/kg administered intratracheally on days 1, 4, 7 and 11 one day post infection. It counts as organism-based. Details: dose 1-4.5 mg/kg, route endotracheal. Particulars: in vivo, inhaled_or_intranasal.
The subject of data set [20] is Mus musculus. The experiment in a line: Toxicity to immunosuppressed C57BL/6 mouse assessed as airway infiltration of neutrophils at 1 to 4.5 mg/kg administered intratracheally on days 1, 4, 7 and 11 one day post infection. It counts as organism-based. Details: dose 1-4.5 mg/kg, route endotracheal. As to conditions: in vivo, inhaled_or_intranasal.
In data set [21] the test system is Mus musculus. The data set can be described thus: Toxicity in immunosuppressed C57BL/6 mouse assessed as blood vessel formation at 1 to 4.5 mg/kg administered intratracheally on days 1, 4, 7 and 11 one day post infection. In kind it is organism-based. Details: dose 1-4.5 mg/kg, route endotracheal. Particulars: in vivo, inhaled_or_intranasal.
In data set [22] the test system is Mus musculus. The data set can be described thus: Toxicity in immunosuppressed C57BL/6 mouse assessed as hemorrhages at 1 to 4.5 mg/kg administered intratracheally on days 1, 4, 7 and 11 one day post infection. In kind it is organism-based. More on the design: dose 1-4.5 mg/kg, route endotracheal. As to conditions: in vivo, inhaled_or_intranasal.
Data set [23] concerns Aspergillus fumigatus. The data set can be described thus: Antifungal activity against Aspergillus fumigatus CBS 144.89 infected in immunosuppressed wild-type C57BL/6 mouse assessed as increase in survival rate at 1 mg/kg administered intratracheally as single dose one day postinfection measured after 14 days relative to untreated control. More on the design: dose 1 mg/kg. In kind it is functional, organism-based.

Data set [24] concerns Aspergillus fumigatus. The data set can be described thus: Antifungal activity against Aspergillus fumigatus CBS 144.89 infected in immunosuppressed wild-type C57BL/6 mouse assessed as increase in survival rate at 1 mg/kg administered intratracheally for 4 days from the day of infection measured after 14 days relative to untreated control. Details: dose 1 mg/kg. In kind it is functional, organism-based.

Structures are written as SMILES. Values after ≈ are worked out from the molar mass of the structure shown. Active and inactive are the calls of the source. The rule behind the calls is not given here. Where a SMILES comes first, the peptide text is derived from it. [ ]: non-standard residue; d: D form. The star is where a group is joined. Palmitoyl = CCCCCCCCCCCCCCCC(=O)*; Lauroyl = CCCCCCCCCCCC(=O)*

`CCCCCCCCCCCCCCCC(=O)N[C@@H](CCCCN)C(=O)N[C@@H](CC(C)C)C(=O)N[C@H](CC(C)C)C(=O)N[C@@H](CCCCN)C(=O)O` gave an MIC in data set [1] of 2 µg/mL (≈ 2.71 µM). In addition, the hemolysis at 20 µM in data set [2] is 9%. The hemolysis at 50 µM in [3] came to 45%.
Turning to `CCCCCCCCCCCCCC(=O)N[C@@H](CCCCN)C(=O)N[C@@H](CC(C)C)C(=O)N[C@H](CC(C)C)C(=O)N[C@@H](CCCCN)C(=O)O`, in [1], inhibition of growth (MIC) required 9 µg/mL (≈ 12.7 µM). Moreover, in [2], the hemolysis at 20 µM amounted to 13%. In addition, the hemolysis at 50 µM in data set [3] came to 50%.
`CCCCCCCCCCCC(=O)N[C@@H](CC(=O)O)C(=O)N[C@@H](CC(C)C)C(=O)N[C@@H](CCCCN)C(=O)N[C@@H](CCCCN)C(=O)N[C@@H](CC(C)C)C(=O)N[C@@H](CC(C)C)C(=O)N[C@@H](CCCCN)C(=O)N[C@@H](CCCCN)C(=O)N[C@@H](CC(C)C)C(=O)N[C@@H](CC(C)C)C(=O)N[C@@H](CCCCN)C(=O)N[C@@H](CCCCN)C(=O)N[C@@H](CC(C)C)C(=O)O` (Lauroyl-DLKKLLKKLLKKL-OH) gave an MIC in data set [1] of 20.8 µg/mL (≈ 11.8 µM). Besides, the hemolysis at 20 µM in data set [2] worked out at 0%. Moreover, the hemolysis at 50 µM in data set [3] was 0%. Moreover, the outcome in data set [4] was Active.
The compound `CCCCCCCCCCCC(=O)N[C@@H](CCCCN)C(=O)N[C@@H](CC(C)C)C(=O)N[C@H](CC(C)C)C(=O)N[C@@H](CCCCN)C(=O)O` (Lauroyl-KL[dL]K-OH) showed an MIC in data set [1] of 34 µg/mL (≈ 49.8 µM). The hemolysis at 20 µM in data set [2] was found to be 0%. In addition, the hemolysis at 50 µM in data set [3] was 0%.
The compound `CCCCCCCCCCCCCCCC(=O)N[C@@H](CCCCN)C(=O)N[C@@H](C)C(=O)N[C@H](C)C(=O)N[C@@H](CCCCN)C(=O)O` (Palmitoyl-KA[dA]K-OH) came in with an MIC in data set [1] of 8 µg/mL (≈ 12.2 µM). For the same compound, the hemolysis at 20 µM in data set [2] is 0%. Further, the hemolysis at 50 µM in [3] came out at 3%. Moreover, the outcome in [4], in [5], in [6], in [7], in data set [8] and in [12] was Active. Moreover, the outcome in [13], in data set [14] and in data set [15] was Active. For the same compound, the results for the Activity entry in data set [9], in data set [10] and in data set [11] were “Toxic”, “Toxic” and 25%, respectively.
For the compound `CCCCCCCCCCCCCCCC(=O)N[C@@H](CCCCN)C(=O)N[C@@H](CCCCN)C(=O)N[C@H](CCCCN)C(=O)N[C@@H](CCCCN)C(=O)O` (Palmitoyl-KK[dK]K-OH), inhibition of growth in [1] (MIC) required 38.4 µg/mL (≈ 49.9 µM). Also, in [2], the hemolysis at 20 µM came out at 0%. The hemolysis at 50 µM in data set [3] was determined as 6%.
`C[C@@H]1[C@H](O)[C@@H](C)/C=C/C=C/C=C/C=C/C=C/C=C/C=C/[C@H](O[C@@H]2O[C@H](C)[C@@H](O)[C@H](N)[C@@H]2O)C[C@@H]2O[C@](O)(C[C@@H](O)C[C@@H](O)[C@H](O)CC[C@@H](O)C[C@@H](O)CC(=O)O[C@H]1C)C[C@H](O)[C@H]2C(=O)O` [AMPHOTERICIN B] registered an MIC in [1] of 11.5 µg/mL (≈ 12.4 µM). Moreover, the outcome in data set [16], in [23] and in data set [24] was inactive. Besides, the Activity entry in data set [17], in [18], in data set [19], in data set [20], in data set [21] and in data set [22] was “Toxic” throughout.
